# What was measured:
# fibroblasts = assay: MTT cell proliferation in fibroblasts exposed to TGFβ or PDGF; assay type: cell-based; conditions: fibroblasts, TGFβ (5 ng/ml) or PDGF (20 ng/ml), 24 hours
# Procedure: (§1) Fibroblasts (CRL-2795; American Type Culture Collection, VA) were cultured in a Dulbecco's Modified Eagle Medium (Hyclone, Logan, Utah), human uterine microvascular endothelial cells (PromoCell GmbH, Heidelberg, Germany) were cultured in an MV2 medium (PromoCell GmbH), and human hepatic stellate cells (Innoprot, Bizkia, Spain) were cultured in a P60126 medium (Innoprot).
# (§2) All cells were maintained under a 5% humidified carbon dioxide condition at 37° C. The cultured cells were exposed to each of PDGF, TGFβ, and the compounds of Formulas A1 to A9 (CBM-N1 N9) for 24 hours, followed by performing experiments.
# Cells were seeded in 96-well plates at 2×10^4 cells/well, and then exposed to TGFB, which promotes cell proliferation, for 24 hours. In addition, 0.1 mg of MTT was added to each well, followed by exposure for 4 hours at 37° C. Afterward, the culture medium was removed, the cells were lysed with dimethyl sulfoxide, and then absorbance was measured at 590 nm using the following devices.
# KCa2.3 channel = KCa2.3 channel protein expression in hepatic stellate cells (western blotting); assay type: cell-based, human; conditions: exposure for 24 hours
# Procedure: as §1, §2
# Cells were lysed with a protein extraction buffer solution, a protein concentration in a supernatant was determined by Bradford analysis, and […] of the protein was loaded on an SDS-PAGE gel and then transferred to a nitrocellulose membrane. The nitrocellulose membrane was blocked with 5% BSA-containing TEST (10 mM Tris-HCl, 150 mM NaCl, and 0.1% (v/v) Tween-20, pH 7.6) at room temperature for 1 hour. Blots were incubated overnight with primary antibodies, and then incubated with horseradish peroxidase-conjugated secondary antibodies for 1 hour. Bands were visualized by chemiluminescence. Data collection and processing were performed using an image analyzer (LAS-3000) and IMAGE GAUSE software (Fuji film, Japan).
# [1] = system: TAA-induced liver disease mouse models; assay: TAA-induced liver disease mouse model; assay type: in vivo; conditions: TAA mice; for ALT levels / AST blood levels: blood, 50 mg/kg/day, 16 weeks, mean±S.E.M; for mRNA level of inflammation factors (inflammatory cytokines TNFα, CCL2, IL12, TGF, IL1α, IL6, MIP-2): liver tissue, versus disease-induced group
# Procedure: To confirm the effects of the compounds of Formula A1 to A5 (CBM-N1˜N5) according to the present invention on liver inflammation and fibrosis, subsequent experiments were performed on […] wild-type mouse (purchased from Orient Bio). First, to induce liver disease in mice, thioacetamide (TAA) were administered to the mice (Experiment A), or the mice were raised on a western diet inducing fatty liver disease (Experiment B). The mice were divided into a normal control, a disease-induced group, and a drug-administered group, and among these three groups, […] were used in each group for Experiment A, and 10 mice were used in each group for Experiment B. A drug treatment method for the mice in each group is as follows:
# (1) Normal control: The normal control in Experiment A was intraperitoneally injected three times a week with the same amount of TAA solvent used when TAA was injected into a disease-induced group, and the normal control in Experiment B was raised on a normal diet. In both of the Experiments A and B, a CM/1-N1 solvent was injected using an oral tube at the same amount as that of CBM-N1 injection five times a week. The TAA solvent was distilled water, the CBM-N1 solvent and a derivative thereof were a 1:1 mixture of DMSO and distilled water. In the accompanying drawings, C or Control refers to a normal control.
# (2) Disease-induced group: The disease-induced group in the Experiment A was intraperitoneally injected with TAA at 100 mg/kg three times a week, the disease-induced group in the Experiment B was raised on a western diet (WD, 45% saturated fat, […], and water containing fructose and glucose). All CBM-N1 solvents in the Experiments A and B were administered using an oral tube at the same amount as that of CBM-N1 administration five times a week. In the accompanying drawings, TAA refers to a group in which a disease is induced by TAA, and \VD refers to a group in which a disease is induced by a western diet.
# (3) Drug-administered group: In the Experiment A, the compounds of Formulas 1 to 5 (50 mg/kg/day, 5 times/week e administered with TAA (100 mg/kg, 3 times/week), and in the Experiment B, CBM-N1 to N5 (50 mg/kg/day, 5 times/week) were administered with a western diet. The mice treated by the above-described method for 16 weeks were instantly killed by excessively administering an anesthetic, and then the livers and blood were extracted. In the accompanying drawings, TAA+CBM-Ni, TAA+CBM-N2, TAA+CBM-N3, TAA+CBM-N4 and TAA+CBM-N5 refer to disease-induced groups to which the compounds of Formulas A1 to A5 were administered, respectively.
# To histologically confirm the therapeutic effect of the compound of Formula A1 (CBM-N1) or the compound of Formula A9 (CBM-N9) in each mouse model, a paraffin tissue sample was prepared. Liver and lung tissues were fixed with a paraformaldehyde solution, and sliced to a thickness of 1 to 2 mm. The sectioned tissues were embedded in paraffin, sliced to a thickness of 4 μm to remove paraffin with xylene, and the xylene was removed with ethanol, followed by washing with tap water. The resulting tissues were subjected to hematoxylin and eosin staining (H&E staining) or immunohistochemistry.
# (1) H&E staining: Nuclei were first stained (blue) with a Harris hematoxylin staining solution for 5 minutes, and counter-stained (pink) with an eosin solution.
# (2) Immunohistochemistry for inflammation markers: Inflammation markers (CD82 and CD45) were stained with specific antibodies, and lymphoid cells were stained brown.
# (3) Immunohistochemistry for fibrosis markers: Collagen was stained by Masson's trichrome staining, or reticulin fibers were stained by reticulin staining.
# Aspartic acid aminotransferase (AST, GOT) and alanine aminotransferase (ALT, GPT), total bilirubin and albumin concentrations were measured using blood collected from liver disease mouse models. […]
Structure (SMILES),TGFβ or PDGF-induced cell proliferation (fibroblasts),expression of the KCa2.3 channel protein (KCa2.3 channel),ALT levels [1] [units/L],AST blood levels [1] [units/L],"mRNA level of inflammation factors (inflammatory cytokines TNFα, CCL2, IL12, TGF, IL1α, IL6, MIP-2) [1]"
"NC(=O)C[S+]([O-])C(c1cccc(F)c1)c1cccc(F)c1 (stereo not drawn) [CBM-N8, 2-[bis(3-fluorophenyl)methanesulfinyl]acetamide]",significantly reduced,significantly reduced,,,
"CNC(=O)C[S+]([O-])C(c1ccccc1)c1ccccc1 (stereo not drawn) [CBM-N4, 2-(benzhydrylsulfinyl)-N-methylacetamide]",,,114.1±8.8,66.6±9.4,decreased
"O=C(CSC(c1ccccc1)c1ccccc1)Nc1ccccc1 [CBM-N3, 2-(benzhydrylthio)-N-phenylacetamide]",,,103.0±6.9,73.4±7.4,decreased
"O=C(CSC(c1ccccc1)c1ccccc1)NCC1CCCO1 (stereo not drawn) [CBM-N2, 2-(benzhydrylthio)-N-[(tetrahydrofuran-2-yl)methyl]acetamide]",,significantly reduced,113.4±7.9,83.6±14.8,decreased

# Reference: patent US20210260018A1, “COMPOSITION FOR TREATING FIBROTIC DISEASES, […] THI[…] AS ACTIVE INGREDIENT” (Cellion Biomed Inc., priority 2018, published 2021)
